Where two headings read alike, the source gives them in different places.
Key:
[1] = tested on: Normal human epidermal fibroblasts; test: Evaluation of fibroblast-activating effect (MTT, blue formazan); format: cell-based; conditions: for activity at 0.313 % / activity at 0.625 % / activity at 1.25 % / activity at 2.5 % / activity at 5 %: Homo sapiens, Fibroblast, 48 h, blue formazan relative to non-treated cells = 100, n=4, read-out: Index (%); for activity at 0.313 %: 0.313 w/v%; for activity at 0.625 %: 0.625 w/v%; for activity at 1.25 %: 1.250 w/v%; for activity at 2.5 %: 2.500 w/v%; for activity at 5 %: 5.000 w/v%; for fibroblast-activating effect: Student's t-test
Description: Normal human epidermal fibroblasts suspended in a DMEM medium containing a 5% calf serum (FBS) were inoculated in a 96-well plate at a density of 2.0 x 10^4 cells per well. After 24 hours of the inoculation, the medium was exchanged with a 1% calf serum (FBS) -containing DMEM medium (each test solution) which contained trehalulose, isomaltulose, or reduced isomaltulose at the concentrations shown in Table 1 (i.e., each six types of concentrations including 0.000 w/v %). […] Also, 5% FBS-containing DMEM media were used as positive controls (P.C.). After culturing for 48 hours, the medium was exchanged with a 1% FBS-containing DMEM medium which contained 0.4 mg/mL of 3-(4,5-dimethylthiazol-2-yl)-2,5-diphenyltetrazolium bromide (MTT) and cultured for 2 hours. The medium was removed, and when 2-propanol was added, blue formazan generated was extracted. Absorbance of the extract at 550 nm was measured to obtain the amount of blue formazan.

[2] = tested on: Normal human epidermal fibroblasts; test: Evaluation of reducing effect of oxidative stress induced cell damage (UVB 25 mJ/cm^2, Neutral Red); format: cell-based
Description: (§1) When cells are irradiated with UVB, reactive oxygen species (such as a superoxide anion radical, hydrogen peroxide, and a hydroxyl radical) generate. The viability of cells obtained when the cells were irradiated with UVB was used as index to evaluate the reducing effect of the oxidative stress induced cell damage.
(§2) Normal human epidermal fibroblasts suspended in a KG2 medium were inoculated in a 96-well plate at a density of 2.0 x 10^4 cells per well. After 24 hours of the inoculation, the medium was exchanged with a KG2 medium (each test solution) which contained trehalulose or reduced isomaltulose at the concentrations shown in Table 2 (i.e., each six types of concentrations including 0.000 w/v %) and cultured for 24 hours. […] Also, groups that were not irradiated with UVB were provided as control groups. After culturing, the medium was exchanged with a KB2 medium containing 33 µg/mL of Neutral Red (NR) and was cultured for 2 hours. After culturing, the cells were washed with PBS, and NR captured within the cells was extracted with a 0.1M HCl solution containing 30% (v/v) ethanol. Absorbance of the extract at 550 nm was measured.
Except that the each test solution was changed to a KG2 medium which contained isomaltulose at the concentrations shown in Table 4 (i.e., six types of concentrations including 0.000 w/v %) and that the irradiation intensity of UVB was changed to 25 mJ/cm^2, the reducing effect of the oxidative stress induced cell damage was evaluated according to the same procedure as in Example 2.

tyrosinase = biological target: T1, tyrosinase (Homo sapiens, UniProt P14679); conditions: for Tyrosinase enzyme activity (µg melanin/µg protein/h): 0.5 mM L-DOPA, 37 °C, 2 hours, n=5; for tyrosinase-inhibiting effect: Student's t-test
T1 sequence (P14679 19-529): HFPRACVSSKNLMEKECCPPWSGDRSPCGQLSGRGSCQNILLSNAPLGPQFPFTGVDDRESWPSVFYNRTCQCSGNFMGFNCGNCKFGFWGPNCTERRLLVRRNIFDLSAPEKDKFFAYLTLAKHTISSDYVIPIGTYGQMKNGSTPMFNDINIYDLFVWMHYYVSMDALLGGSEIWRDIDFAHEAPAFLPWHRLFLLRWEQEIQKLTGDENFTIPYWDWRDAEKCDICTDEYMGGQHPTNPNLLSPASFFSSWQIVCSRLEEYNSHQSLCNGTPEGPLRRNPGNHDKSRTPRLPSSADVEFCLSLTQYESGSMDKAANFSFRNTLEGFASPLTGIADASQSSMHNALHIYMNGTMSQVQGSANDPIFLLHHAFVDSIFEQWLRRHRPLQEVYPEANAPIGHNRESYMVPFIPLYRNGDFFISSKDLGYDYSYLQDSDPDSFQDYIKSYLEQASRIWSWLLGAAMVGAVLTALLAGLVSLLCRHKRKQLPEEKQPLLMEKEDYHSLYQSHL

[3] = tested on: Normal human epidermal fibroblasts; test: Evaluation of reducing effect of oxidative stress induced cell damage (UVB 20 mJ/cm^2, Neutral Red); format: cell-based
Description: as §1, §2

Row | Tyrosinase enzyme activity (µg melanin/µg protein/h) (tyrosinase; 0.094 w/v%) | Tyrosinase enzyme activity (µg melanin/µg protein/h) (tyrosinase; 0.188 w/v%) | Tyrosinase enzyme activity (µg melanin/µg protein/h) (tyrosinase; 0.375 w/v%) | Tyrosinase enzyme activity (µg melanin/µg protein/h) (tyrosinase; 0.750 w/v%) | Tyrosinase enzyme activity (µg melanin/µg protein/h) (tyrosinase; 1.500 w/v%) | Tyrosinase enzyme activity (µg melanin/µg protein/h) (tyrosinase; 3.000 w/v%) | tyrosinase-inhibiting effect (tyrosinase) | SMILES | activity at 0.313 % [1] | activity at 0.625 % [1] | activity at 1.25 % [1] | activity at 2.5 % [1] | activity at 5 % [1] | fibroblast-activating effect [1] | other results
1 | 0.205 ± 0.004 µg melanin/µg protein/h | 0.208 ± 0.003 µg melanin/µg protein/h | 0.200 ± 0.006 µg melanin/µg protein/h | 0.196 ± 0.004 µg melanin/µg protein/h | 0.190 ± 0.003 µg melanin/µg protein/h | 0.184 ± 0.004 µg melanin/µg protein/h | significant tyrosinase-inhibiting effect | O=C(CO)[C@@H](O)[C@H](O)[C@H](O)CO[C@H]1O[C@H](CO)[C@@H](O)[C@H](O)[C@H]1O [Isomaltulose, 6-O-α-D-glucopyranosyl-D-fructose] | 101 ± 2% | 107 ± 4.4% | 111 ± 2.3% | 113 ± 2.1% | 112% | significant fibroblast-activating effect | viability at 0.013 % ([2]; Homo sapiens, Fibroblast, light or radiation study, 24 h, 0.013 w/v%, absorbance relative to UVB non-irradiated group = 100, n=4, read-out: Index (%)): 80 ± 1.8%; viability at 0.025 % ([2]; Homo sapiens, Fibroblast, light or radiation study, 24 h, 0.025 w/v%, absorbance relative to UVB non-irradiated group = 100, n=4, read-out: Index (%)): 83.7 ± 3.5%; viability at 0.05 % ([2]; Homo sapiens, Fibroblast, light or radiation study, 24 h, 0.050 w/v%, absorbance relative to UVB non-irradiated group = 100, n=4, read-out: Index (%)): 84.3 ± 1.1%; viability at 0.1 % ([2]; Homo sapiens, Fibroblast, light or radiation study, 24 h, 0.100 w/v%, absorbance relative to UVB non-irradiated group = 100, n=4, read-out: Index (%)): 86.2 ± 2.5%; viability at 0.2 % ([2]; Homo sapiens, Fibroblast, light or radiation study, 24 h, 0.200 w/v%, absorbance relative to UVB non-irradiated group = 100, n=4, read-out: Index (%)): 86.8 ± 2.9%; reducing effect of cell damage ([2]; Student's t-test): significant reducing effect of cell damage
2 | 0.251 ± 0.034 µg melanin/µg protein/h | 0.251 ± 0.051 µg melanin/µg protein/h | 0.244 ± 0.044 µg melanin/µg protein/h | 0.232 ± 0.028 µg melanin/µg protein/h | 0.197 ± 0.004 µg melanin/µg protein/h | 0.188 ± 0.004 µg melanin/µg protein/h | significant tyrosinase-inhibiting effect | O=C(CO[C@H]1O[C@H](CO)[C@@H](O)[C@H](O)[C@H]1O)[C@@H](O)[C@H](O)[C@H](O)CO [Trehalulose, 1-O-α-D-glucopyranosyl-D-fructose] | 101 ± 2.4% | 104 ± 2.5% | 106.9 ± 0.8% | 112 ± 1.4% | 114 ± 5.8% | significant fibroblast-activating effect | viability at 0.125 % ([3]; Homo sapiens, Fibroblast, light or radiation study, 24 h, 0.125 w/v%, absorbance relative to UVB non-irradiated group = 100, n=4, read-out: Index (%)): 80.7 ± 2.7%; viability at 0.25 % ([3]; Homo sapiens, Fibroblast, light or radiation study, 24 h, 0.250 w/v%, absorbance relative to UVB non-irradiated group = 100, n=4, read-out: Index (%)): 82 ± 4.1%; viability at 0.5 % ([3]; Homo sapiens, Fibroblast, light or radiation study, 24 h, 0.500 w/v%, absorbance relative to UVB non-irradiated group = 100, n=4, read-out: Index (%)): 86.5 ± 1.3%; viability at 1 % ([3]; Homo sapiens, Fibroblast, light or radiation study, 24 h, 1.000 w/v%, absorbance relative to UVB non-irradiated group = 100, n=4, read-out: Index (%)): 93 ± 0.4%; viability at 2 % ([3]; Homo sapiens, Fibroblast, light or radiation study, 24 h, 2.000 w/v%, absorbance relative to UVB non-irradiated group = 100, n=4, read-out: Index (%)): 94.8 ± 1%; reducing effect of cell damage ([3]; Student's t-test): significant reducing effect of cell damage
